Non-standard residues stand in square brackets, D forms with d. Residues, ends and D or L forms follow the SMILES beside them. *: point of attachment. Palmitoyl = CCCCCCCCCCCCCCCC(=O)*; Myristoyl = CCCCCCCCCCCCCC(=O)*
Columns and labels:
fibroblast proliferation = assay: Cyquant Cell Proliferation Assay; type: cell-based
Protocol: For purposes of the present invention, proliferation is assessed using the Cyquant® Cell Proliferation Assay from Molecular Probes. This assay measures increased production of cellular nucleic acids that, in turn, results in increased binding of fluorescent dye.

P. cepacia = assay: Minimum inhibitory concentration, P. cepacia; type: cell-based, Pseudomonas cepacia
Description: By “antimicrobial” activity is meant the ability to inhibit the growth of at least one microbial organism selected from the group consisting E. coli, P. aeruginosa, S. aureus and C. albicans, as confirmed by optical density measurement (“OD”). By “inhibition of growth” is meant reduction or absence of an increase greater than 5% in OD, a dimensionless measure of turbidity that is proportional to the amount of microbial cells present in a sample. For illustrative purposes, a OAB according to the present invention is added to a culture plate on which E. coli is present at a final concentration of about 5×10^3 cfu/ml. The plate is then incubated at about 37° C. for about 24 hours at which time the E. coli is resuspended by shaking, and OD is measured at about 600 nm. Thus, a reduction or absence of an increase greater than 5% in OD confirms the antimicrobial nature of the OAB with respect to E. coli. Minimum inhibitory concentration (“MIC”) is a method well-known to those of skill in the art for expressing antimicrobial activity. A compound to be tested is serially diluted into growth medium, inoculated with culture and then incubated. The MIC is the lowest dilution of compound that inhibits or prevents growth of the target microorganism.

| Compound | increase fibroblast proliferation (qualitative) (fibroblast proliferation) | MIC(P. cepacia) (P. cepacia) | increase fibroblast proliferation (fibroblast proliferation) |
| --- | --- | --- | --- |
| CCCCCCCCCCCCCC(=O)N[C@@H](CCCCN)C(=O)N[C@H](C(=O)N[C@H](C(=O)N[C@@H](CCCCN)C(=O)N[C@@H](CO)C(N)=O)[C@@H](C)O)[C@@H](C)O [P190, Myr-KTTKS-amide] (Myristoyl-KTTKS-NH2) | increase fibroblast proliferation | ≤ 100 ppm | – |
| CCCCCCCCCCCCCC(=O)N[C@H](C(=O)N[C@@H](CCCCN)C(=O)N[C@H](C(=O)N[C@H](C(=O)N[C@@H](CCCCN)C(N)=O)[C@@H](C)O)[C@@H](C)O)[C@@H](C)O [P228, Myr-TKTTK-amide] (Myristoyl-TKTTK-NH2) | increase fibroblast proliferation | – | – |
| CCCCCCCCCCCCCC(=O)N[C@@H](CCCCN)C(=O)N[C@@H](CC(C)C)C(=O)N[C@@H](C)C(=O)N[C@@H](CCCCN)C(=O)N[C@@H](CCCCN)C(=O)N[C@@H](C)C(=O)O [P252, Myr-KLAKKA-acid] (Myristoyl-KLAKKA-OH) | increase fibroblast proliferation | – | – |
| CCCCCCCCCCCCCC(=O)N[C@@H](C)C(=O)N[C@@H](CCCCN)C(=O)N[C@@H](CCCCN)C(=O)N[C@@H](CC(C)C)C(=O)N[C@@H](C)C(=O)N[C@@H](CCCCN)C(=O)O [P256, Myr-AKKLAK-acid] (Myristoyl-AKKLAK-OH) | increase fibroblast proliferation | – | – |
| CCCCCCCCCCCCCC(=O)NCC(=O)N[C@@H](C)C(=O)N[C@@H](CCCNC(=N)N)C(=O)O [P257, Myr-GAR-acid] (Myristoyl-Gly-Ala-Arg-OH) | increase fibroblast proliferation | – | – |
| CCCCCCCCCCCCCC(=O)NCC(=O)N[C@@H](CCCNC(=N)N)C(=O)N[C@@H](CCCCN)C(=O)NCC(=O)N[C@@H](CC(=O)O)C(=O)O [P266, Myr-GRKGD-acid] (Myristoyl-GRKGD-OH) | increase fibroblast proliferation | – | – |
| CCCCCCCCCCCCCC(=O)N[C@H](CC(C)C)C(=O)N[C@H](CCCCN)C(=O)N[C@H](CCCCN)C(=O)N[C@H](C)C(=O)N[C@H](CC(C)C)C(=O)N[C@H](CCCCN)C(=O)O [P286, Myr-d-[LKKALK]-acid] (Myristoyl-[dL][dK][dK][dA][dL][dK]-OH) | – | ≤ 100 ppm | – |
| CCCCCCCCCCCCCC(=O)N[C@@H](CCCCN)C(=O)N[C@@H](CCCCN)C(=O)N[C@@H](C)C(=O)N[C@@H](CC(C)C)C(N)=O [P291, Myr-KKAL-amide] (Myristoyl-KKAL-NH2) | increase fibroblast proliferation | ≤ 100 ppm | – |
| CCCCCCCCCCCCCC(=O)N[C@@H](CCCCN)C(=O)N[C@@H](CCCCN)C(=O)NCC(=O)N[C@@H](CCC(=O)O)C(=O)N[C@@H](CCSC)C(=O)O [P293, Myr-KKGEM-acid] (Myristoyl-KKGEM-OH) | increase fibroblast proliferation | – | – |
| CCCCCCCCCCCCCC(=O)N[C@@H](CC(C)C)C(=O)N[C@@H](CCCCN)C(=O)N[C@@H](CCCCN)C(=O)N[C@@H](C)C(=O)N[C@@H](CC(C)C)C(=O)N[C@@H](CCCCN)C(N)=O [P296, Myr-LKKALK-amide] (Myristoyl-LKKALK-NH2) | increase fibroblast proliferation | ≤ 100 ppm | – |
| CCCCCCCCCCCCCC(=O)N1CCC[C@H]1C(=O)N[C@@H](CCCCN)C(=O)N[C@@H](CCCCN)C(=O)N[C@@H](C)C(=O)N[C@@H](CC(C)C)C(=O)N[C@@H](CCCCN)C(N)=O [P364, Myr-PKKALK-amide] (Myristoyl-PKKALK-NH2) | – | ≤ 100 ppm | – |
| CCCCCCCCCCCCCC(=O)N[C@@H](CCCCN)C(=O)N[C@@H](CCCCN)C(=O)N[C@@H](CC(C)C)C(=O)N[C@@H](C)C(=O)N[C@H](CCCCN)C(N)=O [P365, Myr-KKLA-[K]^D-amide] (Myristoyl-KKLA[dK]-NH2) | – | ≤ 100 ppm | – |
| CCCCCCCCCCCCCC(=O)NCC(=O)N[C@@H](CCCNC(=N)N)C(=O)NCC(=O)N[C@@H](CC(=O)O)C(=O)N[C@@H](CO)C(N)=O [P382, Myr-GRGDS-amide] | increase fibroblast proliferation | – | – |
| CCCCCCCC(=O)NCC(=O)N[C@@H](CCCNC(=N)N)C(=O)NCC(=O)N[C@@H](CC(=O)O)C(=O)N[C@@H](CO)C(N)=O [P387, Oct-GRGDS-amide] | increase fibroblast proliferation | – | – |
| CCCCCCCCCCCCCC(=O)N[C@@H](CC(=O)O)C(=O)N[C@@H](C)C(=O)N[C@@H](CC(=O)O)C(=O)O [P388, Myr-DAD-acid] (Myristoyl-Asp-Ala-Asp-OH) | increase fibroblast proliferation | – | – |
| CCCCCCCCCCCCCC(=O)N[C@@H](CC(=O)O)C(=O)N[C@@H](CC(=O)O)C(=O)N[C@@H](C)C(=O)N[C@@H](CC(=O)O)C(=O)O [P389, Myr-DDAD-acid] (Myristoyl-DDAD-OH) | increase fibroblast proliferation | – | – |

| Compound | increase fibroblast proliferation (qualitative) (fibroblast proliferation) | MIC(P. cepacia) (P. cepacia) | increase fibroblast proliferation (fibroblast proliferation) |
| --- | --- | --- | --- |
| CCCCCCCCCCCCCCCC(=O)N[C@@H](C)C(=O)N[C@@H](C)C(=O)N[C@@H](CCCCN)C(=O)N[C@@H](CCCNC(=N)N)C(N)=O [P398, Pal-AAKR-amide] (Palmitoyl-AAKR-NH2) | – | ≤ 100 ppm | – |
| CCCCCCCCCCCCCC(=O)N[C@@H](CCCCN)C(=O)N[C@H](C(=O)N[C@@H](C)C(=O)N[C@@H](CCCCN)C(=O)N[C@H](CCCCN)C(N)=O)[C@@H](C)CC [P401, Myr-KIAK-[K]^D-amide] (Myristoyl-KIAK[dK]-NH2) | increase fibroblast proliferation | – | – |
| CCCCCCCCCCCCCC(=O)N[C@@H](CC(C)C)C(=O)N[C@@H](CCCCN)C(=O)N[C@@H](CCCCN)C(=O)N[C@@H](C)C(=O)N[C@@H](CC(C)C)C(=O)N[C@H](CCCCN)C(=O)O [P406, Myr-LKKAL-[K]^D-acid] (Myristoyl-LKKAL[dK]-OH) | increase fibroblast proliferation | – | – |
| CCCCCCCCCCCCCC(=O)N[C@@H](CC(=O)O)C(=O)N[C@@H](CC(=O)O)C(=O)N[C@@H](CO)C(=O)N[C@@H](CO)C(=O)N[C@@H](CCCCN)C(=O)N[C@@H](CCCCN)C(N)=O [P411, Myr-DDSSKK-amide] (Myristoyl-DDSSKK-NH2) | increase fibroblast proliferation | – | – |
| CCCCCCCCCCCCCC(=O)N[C@@H](CC(=O)O)C(=O)N[C@@H](CC(=O)O)C(=O)N[C@@H](CC(C)C)C(=O)N[C@@H](C)C(=O)N[C@@H](CCCCN)C(=O)N[C@@H](CCCCN)C(N)=O [P412, Myr-DDLAKK-amide] (Myristoyl-DDLAKK-NH2) | increase fibroblast proliferation | – | – |
| CCCCCCCCCCCCCC(=O)N[C@@H](CCCCN)C(=O)N[C@@H](CC(C)C)C(=O)N[C@@H](C)C(=O)N[C@@H](CCCCN)C(=O)N[C@H](CCCCN)C(N)=O [P414, Myr-KLAK-[K]^D-amide] (Myristoyl-KLAK[dK]-NH2) | increase fibroblast proliferation | – | – |
| CCCCCCCCCCCCCC(=O)N[C@H](C(=O)N[C@H](C(=O)N[C@H](C(=O)N[C@H](C(=O)N[C@H](C(=O)N[C@@H](CCCCN)C(N)=O)[C@@H](C)CC)[C@@H](C)CC)[C@@H](C)CC)[C@@H](C)CC)[C@@H](C)CC [P417, Myr-IIIIIK-amide] (Myristoyl-IIIIIK-NH2) | increase fibroblast proliferation | – | – |
| CCCCCCCCCCCCCC(=O)N[C@H](C(=O)N[C@H](C(=O)N[C@H](C(=O)N[C@@H](CCCCN)C(=O)N[C@@H](CCCCN)C(N)=O)[C@@H](C)CC)[C@@H](C)CC)[C@@H](C)CC [P418, Myr-IIIKK-amide] (Myristoyl-IIIKK-NH2) | increase fibroblast proliferation | – | – |
| Dod-KKALK-amide [P328] | increase fibroblast proliferation | – | – |
| Myr-K-[K]^D-A-[L]^D-amide [P361] | increase fibroblast proliferation | – | – |
| Myr-KGL-[K]^D-amide (Myristoyl-KGL[dK]-NH2; SMILES CCCCCCCCCCCCCC(=O)N[C@@H](CCCCN)C(=O)NCC(=O)N[C@@H](CC(C)C)C(=O)N[C@H](CCCCN)C(N)=O) [P405] | increase fibroblast proliferation | – | – |
| Myr-KKALKL-amide (Myristoyl-KKALKL-NH2; SMILES CCCCCCCCCCCCCC(=O)N[C@@H](CCCCN)C(=O)N[C@@H](CCCCN)C(=O)N[C@@H](C)C(=O)N[C@@H](CC(C)C)C(=O)N[C@@H](CCCCN)C(=O)N[C@@H](CC(C)C)C(N)=O) [P380] | increase fibroblast proliferation | – | – |
| Pal-AARK-amide (Palmitoyl-AARK-NH2; SMILES CCCCCCCCCCCCCCCC(=O)N[C@@H](C)C(=O)N[C@@H](C)C(=O)N[C@@H](CCCNC(=N)N)C(=O)N[C@@H](CCCCN)C(N)=O) [P397] | increase fibroblast proliferation | – | – |
| Pal-KKLAK-amide (Palmitoyl-KKLAK-NH2; SMILES CCCCCCCCCCCCCCCC(=O)N[C@@H](CCCCN)C(=O)N[C@@H](CCCCN)C(=O)N[C@@H](CC(C)C)C(=O)N[C@@H](C)C(=O)N[C@@H](CCCCN)C(N)=O) [P333] | increase fibroblast proliferation | – | – |
| Pal-VGVAPG-amide (Palmitoyl-VGVAPG-NH2; SMILES CCCCCCCCCCCCCCCC(=O)N[C@H](C(=O)NCC(=O)N[C@H](C(=O)N[C@@H](C)C(=O)N1CCC[C@H]1C(=O)NCC(N)=O)C(C)C)C(C)C) [P247] | – | – | at least 30% |
